We go through five compounds from US20250366472A1, “1-AMINOCYCLOPROPANE-1-CARBOXYLIC ACID OXIDASE INHIBITORS (ACO-I)” (Royal Holloway and Bedford New College, priority 2022, published 2025).

Where two headings read alike, the source gives them in different places.

The subject of series [1] is D. discoideum WT cells. The series can be described thus: D. discoideum multicellular development, block at mound stage. Type of series: cell-based. On the procedure:
The effect of MyA on multicellular development of D. discoideum was measured. The MyA was tested at a concentration of 100 μM.
The effect of ACO loss on multicellular development was assessed. ACO-D. discoideum mutants were engineered and compared to standard wild type D. discoideum cells.

Series [2] has as its system A. thaliana. The series can be described thus: A. thaliana root and hypocotyl extension after 6 days. Type of series: in vivo. Particulars: for concentration from which dose dependent effect on root/hypocotyl growth is seen: versus DMSO control, FIG. 6B; for potency compared to AIB: hypocotyl or root extension, from table 3; for effect on root and hypocotyl growth: FIG. 6A. On the procedure: In these experiments, A. thaliana seeds were germinated and grown in 24 h light conditions for 6 days and root and hypocotyl length were recorded (FIG. 6A and 6B).
The IC50 values for the root or hypocotyl extension after 6 days for 5,5-dimethyl-2-(2-phenylacetyl) cyclohexane-1,3-dione (ACOi-84-16-4), 3-[(2E)-3-(4-fluorophenyl)prop-2-enoyl]-4-hydroxy-6-methyl-2H-pyran-2-one (ACOi-74-12-16) and MyA, compared to known compounds AIB and POA are presented in table 3. Images of the plant growth and the root hairs are shown in FIG. 6B for 5,5-dimethyl-2-(2-phenylacetyl) cyclohexane-1,3-dione (ACOi-84-16-4) and 3-[(2E)-3-(4-fluorophenyl)prop-2-enoyl]-4-hydroxy-6-methyl-2H-pyran-2-one (ACOi-74-12-16) and FIG. 6A for MyA and comparably for AIB and POA.

The subject of series [3] is Carnations. The series can be described thus: Cut carnation flower senescence (flower size). Particulars: for slowing of flower senescence versus control: 0.01 mM or 0.02 mM, flower size after 9 days; for performance versus POA and AIB: 0.01/0.02 mM versus POA 0.5/1 mM, AIB 5/10 mM. Type of series: in vivo. On the procedure: Carnations were cut to approximately 5 cm long stems and placed in a solution wherein the solution comprised 5 mL water and either no additional components (control), 0.01 mM or 0.02 mM of 5,5-dimethyl-2-(2-phenylacetyl) cyclohexane-1,3-dione (labelled as 4B) or 3-[(2E)-3-(4-fluorophenyl)prop-2-enoyl]-4-hydroxy-6-methyl-2H-pyran-2-one (labelled as 16B) or 0.5 mM or 1 mM of POA or 10 mM or 5mM of AIB were added. The flower size coverage was measured and the petal shrinkage, or reduction in flower size, is used as an indicator of flower senescence.

Series [4] deals with barley seedlings. As to the kind of experiment: Drought stress recovery of barley seedlings. The series is classed as in vivo. Particulars: 5 days growth, 9 days drought, 12 days watered. On the procedure: (§1) The seeds of each plant were washed with 5% sodium hypochlorite for 15 minutes (with shaking at 120 rpm) and then washed three times in sterile distilled water. The seeds were placed on two layers of waterlogged 3 MM for ˜72 hours under lights at RT until hypocotyl emerged. 7-10 germinated seeds were incubated in sterile Magenta boxes containing 100 mL perlite per box, moistened with 60 ml sterile distilled water and autoclaved. The seeds were incubated in a growth cabinet with a 12 hour light/dark cycle at 22° C. until the first seedling reached approximately 5 cm height. This took approximately 4-5 days. The water was then replaced with 0.5×Hoagland solution with the test compounds (or DMSO for control samples) for 24 hour (Hoagland's No2 Basal salt mixture, Sigma, H2395, use 1.6 g/L in sterile water and autoclaved), and returned to growth cabinet. The media was then removed, the perlite was rinsed twice with sterile distilled water and the solution was replace with 35 ml 0.5 ×Hoaglands solution and returned to the growth cabinet for 24 hours.
The no drought sample was then grown in 0.5×Hoaglands solution and the solution was topped up daily.
The drought samples were exposed to drought conditions for 9 days by removing the media and returned to the growth cabinet. At recovery, 0.5×Hoaglands solution was added back to the drought sample Magenta boxes, up to the top of the perlite and this level was maintained during recovery. The plant recovery over time (up to 19 days post rescue) was recorded and the photographs from the end of the experiment are illustrated in FIG. 8, FIG. 9 and FIG. 11.
10 μM of 3-[(2E)-3-(4-fluorophenyl)prop-2-enoyl]-4-hydroxy-6-methyl-2H-pyran-2-one (labelled as 16B), 10 μM of 5,5-dimethyl-2-(2-phenylacetyl) cyclohexane-1,3-dione (labelled as 4B) and […] of AIB and 500 μM of POA were tested on barley seedlings.

For series [5], the system named is wheat seedlings. As to the kind of experiment: Drought stress recovery of wheat seedlings. The series is classed as in vivo. Particulars: 10 μM, 9 days drought, 19 days recovery. The protocol: as §1, with “The media was then removed, the perlite was rinsed twice with sterile distilled water and the solution was replace with 35 ml 0.5 ×Hoaglands solution and returned to the growth cabinet for 24 hours.” left out
The drought samples were exposed to drought conditions for 9 days by removing the media and returned to the growth cabinet. […] The plant recovery over time (up to 19 days post rescue) was recorded and the photographs from the end of the experiment are illustrated in FIG. 8, FIG. 9 and FIG. 11.
The drought testing was repeated with wheat seedlings and the results are shown in FIGS. 9 and 10 wherein the data was measured following 5 days of growth, 9 days of drought and 19 days of recovery. […]

Series [6] concerns rye seedlings. The series can be described thus: Drought stress recovery of rye seedlings. Type of series: in vivo. Particulars: 10 μM, 9 days drought. On the procedure:
as §1
The no drought sample was then grown in 0.5×Hoaglands solution and the solution was topped up daily. […]
The drought testing was repeated with rye seedlings and the results are shown in FIG. 11 wherein the data was measured following 5 days of growth, 9 days of drought and 19 days of recovery. […]

The test system of series [7] is D. discoideum cells. As to the kind of experiment: Inhibition of D. discoideum unicellular growth (wild type). The series is classed as cell-based. On the procedure:
The unicellular growth rate and multicellular of D. discoideum cells on exposure to MyA was tested and the results are illustrated in FIG. 1 and FIG. 2.
D. discoideum cells were divided by binary fission in nutrient-rich media, initially with a lag phase (0-120 h), and then an exponential phase. The D. discoideum cells were then exposed to MyA at concentrations of 0 μm, 1 μm, 10 μm, 15 μm, 25 μm, 50 μm and 100 μm.

The subject of series [8] is ACO ablated D. discoideum cells (ACO-). The series can be described thus: Growth sensitivity of ACO-mutant D. discoideum cells to MyA. The series is classed as cell-based. An excerpt: The cell and developmental role of the D. discoideum ACO protein were investigated. FIG. 3C illustrates the resistance to the growth and developmental inhibitory effect of MyA on wild type D. discoideum cells (WT) and ACO ablated D. discoideum cells (ACO-).

For series [9], the system named is csA, cAR1, pspA, ecmA expression. The series can be described thus: Developmental gene expression in D. discoideum by qPCR. The series is classed as cell-based. Particulars: 100 μM, 0 to 20 hours. The protocol:
To provide quantitative analysis of the developmental effects of MyA, wild type cells were induced to develop on nitrocellulose filters for time periods between 0 and 20 hours, using cells under solvent only conditions, in the presence of MyA (100 μM), or in the presence of MyA and CEPA. Developmental gene expression associated with early aggregation (csA), […], and in late development (ecmA) were assessed using qPCR. […] Similar delays in peak gene expression were also seen for carA (peak 4 h), and pspA (peak 12 h), and ecmA (peak 20 h), following MyA treatment, and these delays were rescued by addition of exogenous ethylene. These experiments confirm a MyA-dependent delay in D. discoideum development that is rescued by exogenous ethylene application, consistent with a role for MyA in inhibiting ACO activity and slowing crop maturation.

In series [10] the test system is ethylene production. The series can be described thus: Ethylene production of D. discoideum cells, headspace GCMS. Type of series: cell-based. Particulars: 500 μM. On the procedure: Wild type cells in the presence or absence of MyA (500 μM), or ACO-cells were maintained in sealed small flasks with limited head space over 36 h, and headspace gas was taken at 6-hour intervals and analysed by GCMS.

The mark [11] stands for this setting: Arabidopsis thaliana, 144 h, Hypocotyl, 6 days, read-out: IC50 hypocotyl extension.
[12] abbreviates: Arabidopsis thaliana, 144 h, Root, 6 days, read-out: IC50 root extension.
[13] abbreviates: Hypocotyl, 6 days, read-out: IC50 hypocotyl extension.

`Cc1cc(O)c(C(=O)/C=C/c2ccc(F)cc2)c(=O)o1` [ACOi-74-12-16, 3-[(2E)-3-(4-fluorophenyl)prop-2-enoyl]-4-hydroxy-6-methyl-2H-pyran-2-one]: the “efficacy in development block model” value in series [1] (100 μM) is on record as “potent efficacy”. In addition, the “concentration from which dose dependent effect on root/hypocotyl growth is seen” value in series [2] (6 days) stood at 5 μm. In addition, the IC50 in series [2] (setting [11]) amounted to 0.79 µM; in series [2] (setting [12]), 1.02 µM. For the same compound, in series [2], the “potency compared to AIB” value was 1580 fold. The “slowing of flower senescence versus control” value in series [3] was “significant effect”. For the same compound, in [3], the “performance versus POA and AIB” value was “comparable performance”. Further, the recovery after drought entry in series [4] (10 μM) is “comparable seedling height to the control sample which had been watered throughout the duration”; in [6] (23 days recovery) it was “continues to recover”. The “recovery after drought versus untreated drought control” value in [5] and in [6] (19 days recovery) was “improved recovery” in each case. Moreover, in series [5] (FIG. 10), the “seedling height and mass versus drought control” value was “increased height and mass”.
As to `CC1(C)CC(=O)C(C(=O)Cc2ccccc2)C(=O)C1` [ACOi-84-16-4, 5,5-dimethyl-2-(2-phenylacetyl)cyclohexane-1,3-dione], the “efficacy in development block model” value in series [1] (100 μM) was “potent efficacy”. In addition, the “concentration from which dose dependent effect on root/hypocotyl growth is seen” value in series [2] (6 days) is 5 μm. The IC50 in series [2] (setting [11]) was 8.2 µM. In addition, the IC50 in [2] (setting [12]) worked out at 6.9 µM. Moreover, the “potency compared to AIB” value in series [2] is listed as “over 5400 fold”. For the same compound, in [3], the “slowing of flower senescence versus control” value is reported as “significant effect”; the “performance versus POA and AIB” value is on record as “comparable performance”. Also, in [4] (10 μM), the recovery after drought entry was “comparable growth to the same treated with 10,000 μM AIB”.
With `CC(C)(N)C(=O)O` [AIB, a-aminoisobutyric acid, reference compound], the “effect on root and hypocotyl growth” value in series [2] (6 days) is listed as “dose-dependent reduction”. Moreover, the IC50 came to 4290 µM in series [2] (setting [13]) and 1620 µM in series [2] (Root, 6 days, read-out: IC50 root extension). The results for the recovery after drought result in series [4] (2,000 μM) and in series [4] (10,000 μM) were “did slightly better” and “did better still”, respectively.
With `CC1C(=O)C(C(=O)CCc2ccccc2)C(=O)C(C)(C)C1=O` (centres unmarked) [MyA, 2,2,4-trimethyl-6-(3-phenylpropanoyl) cyclohexane-1,3,5-trione], the “effect on unicellular growth” value is given as “significant reduction” in series [7] (10 μM, P<0.05) and “block in growth” in series [7] (100 μM). The IC50 was 7.6 µM in [7] (Dictyostelium discoideum, wild type D. discoideum, secondary plot of normalised growth rate); 29.9 µM in [8] (Dictyostelium discoideum, ACO- D. discoideum cells); 59.4 µM in series [2] (setting [11]); 53.3 µM in series [2] (setting [12]). Besides, the “reduction in potency in the ACO-mutant versus wild type” value in [8] is recorded as “four-fold”. Further, the “effect on multicellular development” value in [1] (100 μM, 24 hours) is on record as “later stages of development were delayed”. In series [1] (100 μM, 36 hours), the “development after extended incubation” value was “developed into fully mature fruiting bodies”. The “lethality of high dose” value in series [1] (100 μM, 36 hours) is “not lethal”. Further, the “rescue of developmental delay by exogenous ethylene (CEPA)” value in [1] (MyA 100 μM plus CEPA) is recorded as “partially rescued”. In addition, the “peak expression of developmental genes (csA, carA, pspA, ecmA)” value in series [9] is listed as “delayed”. In addition, the “decrease in ethylene production” value in series [10] (12 hours, P=0.031) was 39.5%; in [10] (36 hours, P=0.0025) it was 37.9%. In addition, the “effect on root and hypocotyl growth” value in series [2] (6 days) is reported as “comparative reduction”. Besides, the “lowest concentration shown to have an effect on growth” value in series [2] (root and hypocotyl, 6 days, 24 h light) was 0.025 mM. Moreover, in series [2] (versus AIB), the “lowest effective concentration, times lower than AIB” value was determined as 20 times. Moreover, in [2] (versus POA), the “lowest effective concentration, times lower than POA” value was 4 times.
With `O=C(O)c1cnccn1` [POA, pyrazinecarboxylic acid, reference compound], the “effect on root and hypocotyl growth” value in [2] (6 days) was “dose-dependent reduction”. Besides, the concentration for half-maximal inhibition (IC50) in [2] (setting [12]) came out at 213 µM; in series [2] (setting [13]) it was 184 µM. Further, the recovery after drought entry in series [4] (500 μM) is on record as “did not show positive result”.
